In publication PMC10789823, “Synthesis, structural characterizations, in vitro biological evaluation and computational investigations of pyrazole derivatives as potential antidiabetic and antioxidant agents” (Scientific Reports, 2024):
Where “and” joins values, the source holds several entries; their conditions need not be identical. Equal values may be shown once. Read-outs that look alike come from different tables or passages of the source.

Legend:
[1] = Ferric reducing power assay (FRAP); details: mean ± standard deviation (n = 3)
Procedure: (§1) The antioxidant activities of the title compound were determined in vitro by DPPH, ABTS, FRAP and hydrogen peroxide activity (H2O2) methods according to the procedures described in our previous works.
The ferric ion (Fe^3+) reducing power assay was performed as previously described by (Amarowicz et al., 2004) with minor modifications. Briefly, 1 mL of the samples were mixed with 2.5 mL of 0.2 M sodium phosphate buffer (pH 6.6) and 2.5 mL of 1% potassium ferricyanide. The mixtures were incubated in a […] water bath at 50 °C for 20 min. Then, 2.5 mL of 10% trichloroacetic acid was added and centrifuged at 3000 rpm for 10 min. Finally, 2.5 mL of the supernatant were mixed with 2.5 mL distilled water and 0.5 mL FeCl3 solution (0.1%, w/v). The absorbance was measured at 700 nm and the results were expressed as IC50.

ABTS assay = details: for IC50: called SC50, mean ± standard deviation (n = 3)
Procedure: as §1
The ABTS assay was performed as previously described by (Tuberoso et al., 2013). ABTS+ radical was generated by oxidation of ABTS with potassium persulfate. The blue-green ABTS was produced through the reaction between 2 mM ABTS and 70 mM potassium persulfate in water. The mixture was left to stand in the dark for 12–16 h before use. The ABTS+ solution as diluted with methanol to an absorbance of 0.700 ± 0.005 at 734 nm. Then 2 mL of diluted ABTS solution were mixed with 100 μL of samples and absorbance was measured after 1 min incubation at room temperature. A standard curve was obtained by using Ascorbic acid as standard solution.

[2] = DPPH radical scavenging activity assay; details: called SC50; mean ± standard deviation (n = 3)
Procedure: as §1
The DPPH radical activity assay was performed following (Huang et al., 2011) with minor modification. The method using the stable free radical 2,2-diphenyl-1-picrylhydrazyl (DPPH) is based upon the reduction of DPPH free radical. Different concentrations of the prepared compounds (500, 250, 125, 62.5, 31.25 µM) were tested. The DPPH solution was prepared by dissolving 3,9mg of DPPH in 50 mL of the methanol. Then, 50µL of each concentration was added to 1,2ml of methanol and 250µL of the prepared DPPH solution […]. The reaction mixture incubated in the dark for 30 min. The control was prepared by adding 1,25 mL of methanol to 250 µL of DPPH. Ascorbic acid was used as the standard. The absorbances of solutions were spectrophotometrically examined at 517 nm. The radical activity is expressed as inhibition ratio of initial concentration of DPPH radical and is calculated according to the formula: […]
Where AbsDPPH is the absorbance of DPPH radical and Abssample is the absorbance in the presence of sample.

[3] = Hydrogen peroxide activity (H2O2); details: mean ± standard deviation (n = 3)
Procedure: as §1
The hydrogen-donating activity, measured utilizing hydrogen peroxide radicals as the hydrogen acceptor was performed as previously described by (Muruhan et al., 2013) with minor modifications. Briefly a solution of hydrogen peroxide (40 mM) was prepared in phosphate buffer (pH 7.4). Different concentrations of the prepared compounds (62.5, 31.25, 15.62, 7.81 and 3.9 μM) were added to a hydrogen peroxide solution (0.6 mL, 40 mM). The absorbance of hydrogen peroxide at 230 nm was determined after 10 min against a blank solution containing phosphate buffer without hydrogen peroxide (or ascorbic acid as the control). The hydrogen peroxide percentage activity was then calculated using the following equation: […]

xanthine oxidase = xanthine oxidase (Homo sapiens, UniProt P47989); test: Xanthine oxidase inhibition assay (XO); type: biochemical; details: mean ± standard deviation (n = 3)
Sequence of xanthine oxidase (P47989 whole entry, species assumed): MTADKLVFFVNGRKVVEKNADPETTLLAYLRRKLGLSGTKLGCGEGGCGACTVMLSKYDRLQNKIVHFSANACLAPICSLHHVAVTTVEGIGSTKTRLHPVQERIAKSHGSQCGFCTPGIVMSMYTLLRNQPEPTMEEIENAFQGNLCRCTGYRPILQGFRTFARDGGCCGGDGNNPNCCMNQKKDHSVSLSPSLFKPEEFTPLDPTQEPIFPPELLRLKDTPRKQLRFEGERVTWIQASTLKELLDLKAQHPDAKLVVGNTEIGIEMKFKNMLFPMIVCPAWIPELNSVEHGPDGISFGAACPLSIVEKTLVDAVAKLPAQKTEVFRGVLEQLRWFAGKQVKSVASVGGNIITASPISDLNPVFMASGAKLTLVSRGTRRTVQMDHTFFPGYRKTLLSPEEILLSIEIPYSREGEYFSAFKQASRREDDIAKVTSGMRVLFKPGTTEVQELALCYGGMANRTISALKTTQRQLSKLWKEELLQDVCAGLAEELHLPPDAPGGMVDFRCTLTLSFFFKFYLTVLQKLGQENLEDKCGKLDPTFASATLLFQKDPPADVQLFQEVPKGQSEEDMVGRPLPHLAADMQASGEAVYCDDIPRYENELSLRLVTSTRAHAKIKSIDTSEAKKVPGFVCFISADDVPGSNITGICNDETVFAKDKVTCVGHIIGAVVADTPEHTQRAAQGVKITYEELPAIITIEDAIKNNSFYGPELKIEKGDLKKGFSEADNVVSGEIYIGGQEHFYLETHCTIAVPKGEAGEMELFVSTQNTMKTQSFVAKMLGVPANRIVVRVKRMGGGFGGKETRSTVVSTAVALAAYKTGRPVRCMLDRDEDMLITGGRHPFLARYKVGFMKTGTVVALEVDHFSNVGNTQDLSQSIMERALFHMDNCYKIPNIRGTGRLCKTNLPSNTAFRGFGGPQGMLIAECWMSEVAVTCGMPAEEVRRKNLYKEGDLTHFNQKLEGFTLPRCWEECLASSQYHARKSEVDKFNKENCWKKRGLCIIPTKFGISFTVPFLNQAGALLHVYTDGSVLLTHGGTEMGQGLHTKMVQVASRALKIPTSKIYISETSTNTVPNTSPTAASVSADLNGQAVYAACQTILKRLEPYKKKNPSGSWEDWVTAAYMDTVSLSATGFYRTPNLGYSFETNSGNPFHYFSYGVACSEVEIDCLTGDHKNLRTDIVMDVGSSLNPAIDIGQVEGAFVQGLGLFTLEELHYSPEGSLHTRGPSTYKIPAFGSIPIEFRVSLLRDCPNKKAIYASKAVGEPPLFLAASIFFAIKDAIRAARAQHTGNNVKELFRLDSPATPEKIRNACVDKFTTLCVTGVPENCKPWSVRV
Procedure: The xanthine oxidase inhibitory activity of Pyz-1 and Pyz-2 was performed following the method described by Kostić et al.[50], with minor modifications. The samples were prepared at series of concentrations. 1.95 ml of 5 mM phosphate buffer pH 7.5 and 50 µl of enzyme solution was added to the mixtures. After pre-incubation at 25 °C for 15 min. 1 ml of substrate was added.

[4] = target: α-glucosidase from Saccharomyces cerevisiae (Saccharomyces cerevisiae, UniProt P53341); test: biochemical
Sequence of α-glucosidase from Saccharomyces cerevisiae (P53341 whole entry): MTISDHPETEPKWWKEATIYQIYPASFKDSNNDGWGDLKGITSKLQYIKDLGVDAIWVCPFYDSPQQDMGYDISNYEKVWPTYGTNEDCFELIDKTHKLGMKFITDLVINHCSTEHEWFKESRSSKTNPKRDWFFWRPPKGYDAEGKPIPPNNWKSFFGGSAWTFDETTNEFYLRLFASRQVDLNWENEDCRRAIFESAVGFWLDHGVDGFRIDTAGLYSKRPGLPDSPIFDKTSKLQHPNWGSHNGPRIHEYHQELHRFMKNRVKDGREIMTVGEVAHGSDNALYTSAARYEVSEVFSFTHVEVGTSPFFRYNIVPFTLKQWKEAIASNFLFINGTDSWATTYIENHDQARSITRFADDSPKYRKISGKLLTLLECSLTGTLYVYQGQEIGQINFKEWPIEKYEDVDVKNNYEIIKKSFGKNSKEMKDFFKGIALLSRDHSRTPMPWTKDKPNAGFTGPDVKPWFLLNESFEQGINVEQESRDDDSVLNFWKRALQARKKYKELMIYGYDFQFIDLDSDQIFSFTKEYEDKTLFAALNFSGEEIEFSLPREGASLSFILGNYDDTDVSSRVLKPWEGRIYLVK
Procedure: (§2) The α-glucosidase and α-amylase inhibitory activities of compounds Pyz-1 and Pyz-2 were determined using the method described in our previous works[48],[49].
(§3) All other reagents and standards were of analytical reagent grade.
The α-glucosidase inhibitory activity was performed by using (ρ-nitrophenyl-α-D-glucopyranoside) as a substrate according to the method described by (Kee et al., 2013),with minor modifications. The α-glucosidase method is based on the inhibition of the enzyme. α-glucosidase, which hydrolyses (4-Nitrophenyl-α-d-glucopyranoside) to α-d-glucopyranose and P-nitrophenol of yellow color. The target compound was dissolved in DMSO and all the evaluated samples were dissolved in tampon phosphate at a series of concentrations. A mixture of 150 µl of the sample and 100 µl of PBS (pH = 6.7) containing the α- glucosidase enzyme solution (0.1U/ml) was incubated at 37 ° C for 10 min, after incubation, 200µl of pNPG (1 mM) was added to the mixture. The mixtures were incubated at 37 °C for 30 min. Then 1 ml Na2CO3 (0.1 M) was added to stop the reaction. The absorbance was measured at 405 nm. The results were expressed in percentage of inhibition according to the following formula: […]
The same reaction mixture without α-glucosidase was used as negative control.

[5] = target: α-amylase from Bacillus licheniformis (Bacillus licheniformis, UniProt P06278); test: biochemical; details: mean ± standard deviation (n = 3)
Sequence of α-amylase from Bacillus licheniformis (P06278 30-512): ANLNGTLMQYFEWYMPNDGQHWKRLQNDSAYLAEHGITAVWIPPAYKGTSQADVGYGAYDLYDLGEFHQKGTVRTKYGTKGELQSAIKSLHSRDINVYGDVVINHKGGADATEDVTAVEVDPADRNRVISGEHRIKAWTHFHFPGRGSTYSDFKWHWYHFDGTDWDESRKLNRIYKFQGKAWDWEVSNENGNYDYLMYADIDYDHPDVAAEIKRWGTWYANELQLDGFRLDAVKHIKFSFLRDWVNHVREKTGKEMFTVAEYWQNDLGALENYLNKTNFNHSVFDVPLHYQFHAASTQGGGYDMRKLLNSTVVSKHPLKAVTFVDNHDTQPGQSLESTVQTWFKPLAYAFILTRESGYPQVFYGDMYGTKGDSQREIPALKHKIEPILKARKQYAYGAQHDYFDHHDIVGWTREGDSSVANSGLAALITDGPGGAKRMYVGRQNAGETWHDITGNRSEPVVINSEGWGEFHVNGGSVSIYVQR
Procedure: as §2, §3
The α-amylase assay was performed by reacting various concentrations of compounds with α-amylase and starch solution by following the DNSA method with minor modifications (Hashim et al., 2013). The evaluated samples were dissolved in tampon phosphate with various concentrations. The sample solution (10μL) was mixed with 240μL (sodium phosphate buffer 0.02M pH6.9) containing α-amylase (240U/mL), and incubated at 37°C for 20 min. After pre-incubation, 250 µL of 1% starch solution were added to each tube and incubated for 15 min. 1ml of dinitrosalicylic acid was added to stop the reaction, then incubate the solution in a water bath at 90°C for 10 min. The mixture was diluted with 1 mL deionized water and the absorbance (Abs) was measured at 540 nm.
The IC50 values were determined by the percentage of inhibitions at different concentrations.

[6] = mean ± standard deviation (n = 3), read-out: IC50 α-Glucosidase

IC50 [1] [µM]	IC50 (ABTS assay) [µM]	IC50 [2] [µM]	IC50 [3] [µM]	IC50 [5]	IC50 [4, 6] [µM]	Compound	IC50 (xanthine oxidase) [µM]	IC50 [4] [µM]	ABTS scavenging activity relative to Pyz-1 (ABTS assay; ratio of SC50 values, versus Pyz-1) [fold]
88.12 ± 0.23	22.5 ± 0.59	78.11 ± 0.68	7.45 ± 1.11	–	–	O=C1O[C@H]([C@@H](O)CO)C(O)=C1O [Ascorbic acid, reference compound]	–	–	–
62.62 ± 0.49	20.5 ± 0.87	139 ± 1.45	24.8 ± 1.23	119 µM and 120 µM	95.85 ± 0.92	Cc1cc(-c2nnc(S)n2N)n[nH]1 [Pyz-2, 4-amino-5-(5-methyl-1H-pyrazol-3-yl)-4H-1,2,4-triazole-3-thiol]	10.8 ± 0.54	–	3.88
–	–	–	–	> 500 µM	279 ± 4.03	Cc1cc(C(=O)NN)[nH]n1 [Compound 1, 5-methyl-1H-pyrazole-3-carbohydrazide]	–	–	–

Compound	IC50 [1] [µM]	IC50 (ABTS assay) [µM]	IC50 [2] [µM]	IC50 [3] [µM]	IC50 [5]	IC50 [4, 6] [µM]	IC50 (xanthine oxidase) [µM]	IC50 [4] [µM]	ABTS scavenging activity relative to Pyz-1 (ABTS assay; ratio of SC50 values, versus Pyz-1) [fold]
Cc1cc(C(=O)NNC(=O)Nc2ccccc2)n[nH]1 [Pyz-1, 2-(5-methyl-1H-pyrazole-3-carbonyl)-N-phenylhydrazine-1-carboxamide]	100.2 ± 0.79	79.77 ± 0.45	238.5 ± 1.12	31.5 ± 0.92	120 µM and 119 µM	–	24.3 ± 0.78	75.62 ± 0.56	–
